For series [1], the target named is T1, Peptidyl-prolyl cis-trans isomerase FKBP4 (Homo sapiens, UniProt Q02790).
T1 sequence (Q02790 whole entry): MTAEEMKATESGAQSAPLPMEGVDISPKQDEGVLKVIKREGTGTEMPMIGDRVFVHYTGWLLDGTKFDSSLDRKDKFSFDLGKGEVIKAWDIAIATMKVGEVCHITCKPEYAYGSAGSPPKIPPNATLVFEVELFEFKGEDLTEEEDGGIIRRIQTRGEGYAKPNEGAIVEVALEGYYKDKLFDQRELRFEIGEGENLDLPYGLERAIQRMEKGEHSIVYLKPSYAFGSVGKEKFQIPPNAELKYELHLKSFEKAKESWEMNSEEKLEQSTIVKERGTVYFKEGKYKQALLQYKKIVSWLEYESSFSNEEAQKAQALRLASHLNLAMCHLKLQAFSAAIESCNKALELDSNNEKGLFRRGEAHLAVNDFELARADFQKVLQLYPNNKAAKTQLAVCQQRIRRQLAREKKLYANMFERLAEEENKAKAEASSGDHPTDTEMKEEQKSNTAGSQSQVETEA
The series is described as follows: (§1) Binding affinity to FKBP52 FK1 domain (1 to 148 residues) (unknown origin) by Dansyl fluorescence based assay.

For series [2], the target named is T1, Peptidyl-prolyl cis-trans isomerase FKBP4. The series is described as follows: Binding affinity to FKBP52 FK1 domain (1 to 148 residues) (unknown origin) by isothermal calorimetric analysis.
Series [3] deals with T2, Peptidyl-prolyl cis-trans isomerase FKBP4 (Homo sapiens) (UniProt Q02790).
T2 sequence (whole entry): T1 sequence (Q02790 whole entry)
The description is as §1.

The target of series [4] is T2, Peptidyl-prolyl cis-trans isomerase FKBP4 (Homo sapiens). The experiment in a line: Binding affinity to FKBP52 FK2 domain (167 to 253 residues) (unknown origin) in PBS at 10 uM by Dansyl fluorescence based assay relative to control.
Series [5] shares this target. The experiment in a line: Binding affinity to FKBP52 FK1 domain (1 to 148 residues) (unknown origin) in PBS assessed as quenching of Trp emission at 10 to 20 uM by fluorimetric analysis.
For series [6] the target is unchanged. The experiment in a line: Binding affinity to FKBP52 FK1 domain (1 to 148 residues) (unknown origin) in PBS at 20 uM in presence of one equivalent FK506 by FRET assay.
Series [7] deals with T1, Peptidyl-prolyl cis-trans isomerase FKBP4. The series is described as follows: Binding affinity to FKBP52 FK1 domain (1 to 148 residues) (unknown origin) in PBS by fluorescence spectroscopy.
The target in series [8] is T2, Peptidyl-prolyl cis-trans isomerase FKBP4 (Homo sapiens). The series is described as follows: Binding affinity to FKBP52 FK1 domain (1 to 148 residues) (unknown origin) assessed as increase in fluorescence at 10 uM by Dansyl fluorescence based assay relative to control.
The target is the same in series [9]. The series is described as follows: Binding affinity to FKBP52 FK1 domain (1 to 148 residues) (unknown origin) in PBS assessed as induction of blue shift by measuring emission wavelength at 10 to 20 uM by fluorimetric analysis (reference value: 560 nm).
Series [10] shares this target. The series is described as follows: Binding affinity to FKBP52 FK1 domain (1 to 148 residues) (unknown origin) assessed as blue shift at 10 uM by Dansyl fluorescence based assay.
The target is the same in series [11]. The series is described as follows: Binding affinity to FKBP52 FK1 domain (1 to 148 residues) (unknown origin) at 10 uM in presence of FK506 by Dansyl fluorescence based assay.
The target is the same in series [12]. The experiment in a line: Binding affinity to FKBP52 FK1 domain (1 to 148 residues) (unknown origin) at 10 uM by Dansyl fluorescence based assay.
Series [13] in a line: Solubility of the compound. Format: physicochemical.

Active and inactive are the calls of the source. The rule behind the calls is not given here. Square brackets hold non-standard residues; d marks the D form. Peptide text beside a SMILES is read from it. * marks the point of attachment. Pro(trans-4-F) = O=C(O)[C@@H]1C[C@@H](F)CN1; Dansyl = CN(C)c1cccc2c(S(=O)(=O)*)cccc12; Pro(cis-4-F) = O=C(O)[C@@H]1C[C@H](F)CN1; Hyp = O=C(O)[C@@H]1C[C@@H](O)CN1; hPhe = N[C@@H](CCc1ccccc1)C(=O)O; 2Pal = N[C@@H](Cc1ccccn1)C(=O)O; 3Pal = N[C@@H](Cc1cccnc1)C(=O)O; 4Pal = N[C@@H](Cc1ccncc1)C(=O)O; Tic = O=C(O)[C@@H]1Cc2ccccc2CN1; Tle = CC(C)(C)[C@H](N)C(=O)O; Pip = O=C(O)[C@@H]1CCCCN1; Ac5c = NC1(C(=O)O)CCCC1

Consider `CN(C)c1cccc2c(S(=O)(=O)N3[C@H](C(=O)N[C@@H](CCc4ccccc4)C(=O)N[C@@H](CCCNC(=N)N)C(=O)O)CCC3(C)C)cccc12`, for which the Kd in series [1] is over 50 µM.

As for `CN(C)c1cccc2c(S(=O)(=O)N3CCC[C@H]3C(=O)N[C@@H](CCc3ccccc3)C(=O)N[C@@H](CCCNC(=N)N)C(=O)O)cccc12`, in [2], the dissociation constant (Kd) is 5 µM.

In [2], `CCCCN(CC(=O)N[C@@H](CCc1ccccc1)C(=O)N[C@@H](CCCNC(=N)N)C(=O)O)S(=O)(=O)c1cccc2c(N(C)C)cccc12` returned an equilibrium dissociation constant (Kd) of over 50 µM.

Turning to `CN(C)c1cccc2c(S(=O)(=O)N3CCC[C@@H]3C(=O)N[C@@H](CCc3ccccc3)C(=O)N[C@@H](CCCNC(=N)N)C(=O)O)cccc12`, the dissociation constant (Kd) in [2] is over 50 µM.

Consider `CN(C)c1cccc2c(S(=O)(=O)N3CCC[C@H]3C(N)=O)cccc12`, for which the outcome in series [3] was inactive.

Consider `CN(C)c1cccc2c(S(=O)(=O)N3C[C@H](O)C[C@H]3C(=O)N[C@@H](CCc3ccccc3)C(=O)N[C@@H](CCCNC(=N)N)C(=O)O)cccc12` (Dansyl-[Hyp]-[hPhe]-Arg-OH), for which the equilibrium dissociation constant (Kd) in series [2] was over 50 µM.

`CN(C)c1cccc2c(S(=O)(=O)N3CCCC[C@H]3C(=O)N[C@@H](Cc3ccccc3)C(=O)N[C@@H](CCCNC(=N)N)C(=O)O)cccc12` (Dansyl-[Pip]-Phe-Arg-OH) came in with a Kd in [2] of 5.8 µM.

Consider `CN(C)c1cccc2c(S(=O)(=O)N3CCCC[C@H]3C(=O)N[C@@H](Cc3c[nH]c4ccccc34)C(=O)N[C@@H](CCCNC(=N)N)C(=O)O)cccc12` (Dansyl-[Pip]-Trp-Arg-OH), for which, in [1], binding was characterised by a dissociation constant (Kd) of 20 µM.

The compound `CN(C)c1cccc2c(S(=O)(=O)N3CCCC[C@H]3C(=O)N[C@@H](Cc3ccccn3)C(=O)N[C@@H](CCCNC(=N)N)C(=O)O)cccc12` (Dansyl-[Pip]-[2Pal]-Arg-OH) gave a Kd in series [2] of 3.5 µM.

For the compound `CN(C)c1cccc2c(S(=O)(=O)N3CCCC[C@H]3C(=O)N[C@@H](Cc3cccnc3)C(=O)N[C@@H](CCCNC(=N)N)C(=O)O)cccc12` (Dansyl-[Pip]-[3Pal]-Arg-OH), binding in series [2] was put at a Kd of 3 µM.

On to `CN(C)c1cccc2c(S(=O)(=O)N3CCCC[C@H]3C(=O)N[C@@H](Cc3ccncc3)C(=O)N[C@@H](CCCNC(=N)N)C(=O)O)cccc12` (Dansyl-[Pip]-[4Pal]-Arg-OH), for which the dissociation constant Kd in [2] was over 50 µM.

Compound `CN(C)c1cccc2c(S(=O)(=O)N3CCCC[C@H]3C(=O)NC3(C(=O)N[C@@H](CCCNC(=N)N)C(=O)O)CCCC3)cccc12` (Dansyl-[Pip]-[Ac5c]-Arg-OH) showed a Kd in [2] of 10 µM.

As to `CN(C)c1cccc2c(S(=O)(=O)N3CCCC[C@H]3C(=O)N3CCCC[C@H]3C(=O)N[C@@H](CCCNC(=N)N)C(=O)O)cccc12` (Dansyl-[Pip]-[Pip]-Arg-OH), the dissociation constant (Kd) in series [2] is 1.1 µM.

In [2], `CN(C)c1cccc2c(S(=O)(=O)N3CCCC[C@H]3C(=O)N3Cc4ccccc4C[C@H]3C(=O)N[C@@H](CCCNC(=N)N)C(=O)O)cccc12` (Dansyl-[Pip]-[Tic]-Arg-OH) came in with a Kd of over 50 µM.

On to `CN(C)c1cccc2c(S(=O)(=O)N3CCCC[C@H]3C(=O)N[C@H](C(=O)N[C@@H](CCCNC(=N)N)C(=O)O)C(C)(C)C)cccc12` (Dansyl-[Pip]-[Tle]-Arg-OH), for which the Kd in [2] was found to be 2.9 µM.

Consider `CN(C)c1cccc2c(S(=O)(=O)N3CCCC[C@H]3C(=O)N[C@@H](CCc3ccccc3)C(=O)N[C@@H](CCCNC(=N)N)C(=O)O)cccc12` (Dansyl-[Pip]-[hPhe]-Arg-OH), for which the outcome in [4], in series [6] and in series [11] was inactive. For the same compound, the equilibrium dissociation constant (Kd) in series [2] stood at 1.6 µM; in series [7] it was 4.6 µM. The Activity in series [5] was 67%; in series [9], 537 nm; in series [10] it was 30 nm. In addition, the fold change (FC) in series [8] was determined as 4.

On to `CN(C)c1cccc2c(S(=O)(=O)N3CCCC[C@H]3C(=O)N[C@@H](CCc3ccccc3)C(=O)O)cccc12.O=C(O)C(F)(F)F` (Dansyl-[Pip]-[hPhe]-OH), for which the result in [12] was inactive. Moreover, the solubility result in series [13] is reported as “Insoluble”.

As to `CN(C)c1cccc2c(S(=O)(=O)N3C[C@@H](F)C[C@H]3C(=O)N[C@@H](CCc3ccccc3)C(=O)N[C@@H](CCCNC(=N)N)C(=O)O)cccc12` (Dansyl-[Pro(cis-4-F)]-[hPhe]-Arg-OH), binding in [2] was put at a Kd of 1.3 µM.

For the compound `CN(C)c1cccc2c(S(=O)(=O)N3C[C@H](F)C[C@H]3C(=O)N[C@@H](CCc3ccccc3)C(=O)N[C@@H](CCCNC(=N)N)C(=O)O)cccc12` (Dansyl-[Pro(trans-4-F)]-[hPhe]-Arg-OH), the Kd in series [2] was found to be 20 µM.

`CN(C)c1cccc2c(S(=O)(=O)N3Cc4ccccc4C[C@H]3C(=O)N[C@@H](CCc3ccccc3)C(=O)N[C@@H](CCCNC(=N)N)C(=O)O)cccc12` (Dansyl-[Tic]-[hPhe]-Arg-OH) gave a Kd in series [1] of over 50 µM.
